Where two headings read alike, the source gives them in different places.
Assay: Plasma pharmacokinetics (LC-MS/MS, noncompartmental) in phase I patients
Assay type: in vivo, human
Settings: for Cmax / AUC: human, plasma, oral; for AUC: read-out: AUC0−τ
Experimental: Pharmacokinetic studies were performed in all patients. Ethylenediaminetetraacetic acid blood samples were collected during the first cycle: on day 1 before the first drug intake and 0.5, 1, 2, 4, 6, 8, 12 and 24 h after administration; on days 3, 8 and 15 before the morning drug intake and 2 h after administration; and on day 22 before the morning drug intake and 0.5, 1, 2, 4, 6, 8, 12 and 24 h after administration. Samples were immediately put on ice and centrifuged at 4°C for 10 min at 1500 g. The resulting plasma was stored at −70°C until analysis. Plasma samples of the last three patients were not measured as the study was stopped before analysis.
The total plasma concentrations of AZD3409 ester and AZD3409 acid were determined by LC–MS/MS. The plasma samples were treated with dithiothreitol to reduce any disulphide bonds. The sample pretreatment was based on protein precipitation with acidic acetonitrile. Isotopically labelled analogues were used as internal standards. The method has been validated regarding selectivity, accuracy, precision and stability in human plasma. The lower limit of quantification was 3 ng ml^−1 for both AZD3409 ester and AZD3409 acid, with a 50 μl sample volume.
The following PK parameters were determined, either by direct observation or by noncompartmental analysis (WinNonlin, version 5.0.1; Pharsight, Mountain View, CA, USA): the minimal plasma concentration (Cmin), the maximal plasma concentration (Cmax), the area under the curve within one dosing interval (AUC0−τ) and total plasma clearance (Cl/F). Correlations between dose and Cmax levels and between dose and AUC0−τ were analysed on day 1 using the nonparametric Spearman's ρ (Rs) correlation test. Accumulation was tested with an exact Wilcoxon's rank paired signed test. Linear measures mixed effects models were constructed with SAS (SAS Institute Inc., Cary, NC, USA) to determine the effect of the dose on the trough plasma concentrations of both metabolites. The daily dose, time (days), gender and age were considered to be a fixed effect, and the patient variable was considered to be a random effect. Owing to the distribution of the trough plasma concentration log transformation was applied.

[1] = 500 mg once daily, day 1, dose 500 (once daily), N=3, mean (SD)
[2] = 500 mg once daily, day 22, dose 500 (once daily), N=2, absolute values
[3] = 750 mg b.i.d., day 1, dose 750 b.i.d., N=8, mean (SD)
[4] = 750 mg b.i.d., day 22, dose 750 b.i.d., N=3, mean (SD)
[5] = 1000 mg once daily, day 1, dose 1000 (once daily), N=3, mean (SD)
[6] = 1000 mg once daily, day 22, dose 1000 (once daily), N=3, mean (SD)
[7] = 1250 mg b.i.d., day 1, dose 1250 b.i.d., N=6, mean (SD)
[8] = 1250 mg b.i.d., day 22, dose 1250 b.i.d., N=4, mean (SD)
[9] = 1500 mg b.i.d., day 1, dose 1500 b.i.d., N=2, absolute values
[10] = 1750 mg b.i.d., day 1, dose 1750 b.i.d., N=4, mean (SD)
[11] = 1750 mg b.i.d., day 22, dose 1750 b.i.d., N=1

Question: For `CSCC[C@H](NC(=O)c1cc(NC[C@@H]2C[C@H](S)CN2)ccc1CCc1ccc(F)cc1)C(=O)OC(C)C` [AZD3409 ester], which AUCester/AUCacid ratio (day 1) is on record?
Answer: 2.5

Question: What about the “Spearman correlation (Rs) between dose and AUC” value (day 1) of the same molecule?
Answer: 0.52

Question: And the “Spearman correlation (Rs) between dose and Cmax” value (day 1)?
Answer: 0.43

Question: What about the AUCester/AUCacid ratio (day 22) of the same molecule?
Answer: 2.0

Question: And the Cl/F (day 22, dose 500 (once daily), N=2, absolute values)?
Answer: [263–308] l h^−1

Question: And the Cl/F (day 22, dose 750 b.i.d., N=3, mean (SD))?
Answer: 309 (151) l h^−1

Question: And the Cl/F (day 22, dose 1000 (once daily), N=3, mean (SD))?
Answer: 319 (172) l h^−1

Question: What about the Cl/F (day 22, dose 1250 b.i.d., N=4, mean (SD)) of the same molecule?
Answer: 474 (231) l h^−1

Question: What about the Cl/F (day 22, dose 1750 b.i.d., N=1) of the same molecule?
Answer: 1145 L/h

Question: What about the “Ratio AUC0−τ day 22/day 1” value (dose 500 (once daily), N=2, absolute values) of the same molecule?
Answer: [1.42–8.31]

Question: And the “Ratio AUC0−τ day 22/day 1” value (dose 750 b.i.d., N=3, mean (SD))?
Answer: 7.03 (8.46)

Question: And the “Ratio AUC0−τ day 22/day 1” value (dose 1000 (once daily), N=3, mean (SD))?
Answer: 1.54 (0.86)

Question: And the “Ratio AUC0−τ day 22/day 1” value (dose 1250 b.i.d., N=4, mean (SD))?
Answer: 1.28 (0.70)

Question: What about the “Ratio AUC0−τ day 22/day 1” value (dose 1750 b.i.d., N=1) of the same molecule?
Answer: 0.97

Question: What about the Cmax [1] of the same molecule?
Answer: 82.1 ng/mL

Question: And the AUC [1]?
Answer: 395 ng·h/mL

Question: What about the Cmax [2] of the same molecule?
Answer: 229 to 257 ng/mL

Question: What about the AUC [2] of the same molecule?
Answer: 1230 to 1460 ng·h/mL

Question: What about the Cmax [3] of the same molecule?
Answer: 245 ng/mL

Question: What about the AUC [3] of the same molecule?
Answer: 1070 ng·h/mL

Question: And the Cmax [4]?
Answer: 298 ng/mL

Question: What about the AUC [4] of the same molecule?
Answer: 1720 ng·h/mL

Question: What about the Cmax [5] of the same molecule?
Answer: 318 ng/mL

Question: What about the AUC [5] of the same molecule?
Answer: 1540 ng·h/mL

Question: What about the Cmax [6] of the same molecule?
Answer: 296 ng/mL

Question: What about the AUC [6] of the same molecule?
Answer: 1930 ng·h/mL

Question: And the Cmax [7]?
Answer: 338 ng/mL

Question: And the AUC [7]?
Answer: 1780 ng·h/mL

Question: And the Cmax [8]?
Answer: 366 ng/mL

Question: And the AUC [8]?
Answer: 2120 ng·h/mL

Question: What about the Cmax [9] of the same molecule?
Answer: 227 to 315 ng/mL

Question: What about the AUC [9] of the same molecule?
Answer: 1460 to 1630 ng·h/mL

Question: And the Cmax [10]?
Answer: 362 ng/mL

Question: What about the AUC [10] of the same molecule?
Answer: 1690 ng·h/mL

Question: And the Cmax [11]?
Answer: 445 ng/mL

Question: And the AUC [11]?
Answer: 1100 ng·h/mL
